Assay: molar heat capacity at constant pressure; xn = mol fraction of the nth substance listed
Details: 101.3 kPa, Liquid, Small sample (50 mg) DSC

CCC(C)(C)O [2-methylbutan-2-ol] + CCCCCCC
Details | molar heat capacity at constant pressure [J/K/mol]
284.14 K, x1 = 0.0061 | 220.41
284.14 K, x1 = 0.0249 | 226.02
284.14 K, x1 = 0.0494 | 229.4
284.14 K, x1 = 0.1999 | 234.97
284.14 K, x1 = 0.4051 | 235.79
284.14 K, x1 = 0.5981 | 234.72
284.14 K, x1 = 0.7015 | 233.37
284.14 K, x1 = 0.9139 | 231.9
284.14 K, x1 = 0.9609 | 232.4
284.16 K, x1 = 0.1 | 232.58
284.16 K, x1 = 0.1547 | 234.25
284.16 K, x1 = 0.2993 | 235.98
284.16 K, x1 = 0.4986 | 235.43
284.18 K, x1 = 0.8023 | 232.34
285.15 K, x1 = 0.0061 | 220.65
285.15 K, x1 = 0.0249 | 226.27
285.15 K, x1 = 0.0494 | 229.86
285.15 K, x1 = 0.1 | 233.16
285.15 K, x1 = 0.1547 | 234.99
285.15 K, x1 = 0.1999 | 235.77
285.15 K, x1 = 0.2993 | 236.86
285.15 K, x1 = 0.4051 | 236.78
285.15 K, x1 = 0.4986 | 236.52
285.15 K, x1 = 0.5981 | 235.88
285.15 K, x1 = 0.7015 | 234.58
285.15 K, x1 = 0.8023 | 233.57
285.15 K, x1 = 0.9609 | 233.54
285.51 K, x1 = 0.9139 | 233.61
286.16 K, x1 = 0.0061 | 220.9
286.16 K, x1 = 0.0249 | 226.64
286.16 K, x1 = 0.0494 | 230.34
286.16 K, x1 = 0.1 | 233.84
286.16 K, x1 = 0.1547 | 235.78
286.16 K, x1 = 0.1999 | 236.66
286.16 K, x1 = 0.2993 | 237.91
286.16 K, x1 = 0.4051 | 237.9
286.16 K, x1 = 0.4986 | 237.63
286.16 K, x1 = 0.5981 | 237.03
286.16 K, x1 = 0.7015 | 235.81
286.16 K, x1 = 0.8023 | 234.67
286.16 K, x1 = 0.9139 | 234.27
286.16 K, x1 = 0.9609 | 234.56
287.14 K, x1 = 0.0061 | 221.16
287.14 K, x1 = 0.0249 | 226.92
287.14 K, x1 = 0.0494 | 230.72
287.14 K, x1 = 0.1 | 234.39
287.14 K, x1 = 0.1547 | 236.4
287.14 K, x1 = 0.1999 | 237.42
287.14 K, x1 = 0.2993 | 238.78
287.14 K, x1 = 0.4051 | 238.87
287.14 K, x1 = 0.4986 | 238.65
287.14 K, x1 = 0.5981 | 238.11
287.14 K, x1 = 0.7015 | 236.94
287.14 K, x1 = 0.8023 | 235.73
287.14 K, x1 = 0.9139 | 235.37
287.14 K, x1 = 0.9609 | 235.45
288.15 K, x1 = 0.0061 | 221.55
288.15 K, x1 = 0.0249 | 227.34
288.15 K, x1 = 0.0494 | 231.29
288.15 K, x1 = 0.1 | 235.13
288.15 K, x1 = 0.1547 | 237.25
288.15 K, x1 = 0.1999 | 238.28
288.15 K, x1 = 0.2993 | 239.83
288.15 K, x1 = 0.4051 | 240.03
288.15 K, x1 = 0.4986 | 239.84
288.15 K, x1 = 0.5981 | 239.38
288.15 K, x1 = 0.7015 | 238.26
288.15 K, x1 = 0.8023 | 237.01
288.15 K, x1 = 0.9139 | 236.54
288.15 K, x1 = 0.9609 | 236.62
289.14 K, x1 = 0.0061 | 221.82
289.14 K, x1 = 0.0249 | 227.63
289.14 K, x1 = 0.0494 | 231.74
289.14 K, x1 = 0.1 | 235.73
289.14 K, x1 = 0.1547 | 237.99
289.14 K, x1 = 0.1999 | 239.11
289.14 K, x1 = 0.2993 | 240.71
289.14 K, x1 = 0.4051 | 241.03
289.14 K, x1 = 0.4986 | 240.91
289.14 K, x1 = 0.5981 | 240.51
289.14 K, x1 = 0.7015 | 239.53
289.14 K, x1 = 0.8023 | 238.27
289.14 K, x1 = 0.9139 | 237.62
289.14 K, x1 = 0.9609 | 237.61
290.14 K, x1 = 0.0061 | 222.02
290.14 K, x1 = 0.0249 | 227.88
290.14 K, x1 = 0.0494 | 232.1
290.14 K, x1 = 0.1 | 236.25
290.14 K, x1 = 0.1547 | 238.66
290.14 K, x1 = 0.1999 | 239.89
290.14 K, x1 = 0.2993 | 241.62
290.14 K, x1 = 0.4051 | 242.04
290.14 K, x1 = 0.4986 | 241.98
290.14 K, x1 = 0.5981 | 241.64
290.14 K, x1 = 0.7015 | 240.72
290.14 K, x1 = 0.8023 | 239.53
290.14 K, x1 = 0.9139 | 238.75
290.14 K, x1 = 0.9609 | 238.68
291.15 K, x1 = 0.0061 | 222.4
291.15 K, x1 = 0.0249 | 228.24
291.15 K, x1 = 0.0494 | 232.63
291.15 K, x1 = 0.1 | 236.91
291.15 K, x1 = 0.1547 | 239.46
291.15 K, x1 = 0.1999 | 240.73
291.15 K, x1 = 0.2993 | 242.6
291.15 K, x1 = 0.4051 | 243.13
291.15 K, x1 = 0.4986 | 243.16
291.15 K, x1 = 0.5981 | 242.84
291.15 K, x1 = 0.7015 | 241.97
291.15 K, x1 = 0.8023 | 240.74
291.15 K, x1 = 0.9139 | 239.92
291.15 K, x1 = 0.9609 | 239.8
292.14 K, x1 = 0.0061 | 222.7
292.14 K, x1 = 0.0494 | 233.02
292.14 K, x1 = 0.1 | 237.52
292.14 K, x1 = 0.1547 | 240.13
292.14 K, x1 = 0.1999 | 241.49
292.14 K, x1 = 0.2993 | 243.55
292.14 K, x1 = 0.4051 | 244.19
292.14 K, x1 = 0.4986 | 244.28
292.14 K, x1 = 0.5981 | 243.93
292.14 K, x1 = 0.7015 | 243.17
292.14 K, x1 = 0.8023 | 241.93
292.14 K, x1 = 0.9139 | 241.07

Reference: the NIST ThermoML archive (doi:10.1016/j.jct.2008.10.010)
